Values quoted from earlier work in patent US10940187B2, “Method of treatment of schizophreniform disorder” (Curemark, LLC, priority 2011, dated 2021).
Read-outs that look alike come from different tables or passages of the source.

How the values were obtained:
ckr mice = settings: for spontaneous hyperactivity of ckr mice: dose dependent effects
control mice = settings: monitored during the dark cycle

## Cc1nc2n(c(=O)c1CCN1CCC(c3noc4cc(F)ccc34)CC1)CCCC2 [risperidone]
Ckr mice
  spontaneous hyperactivity of ckr mice: dose-dependently suppressed

## O=C1CCc2ccc(OCCCCN3CCN(c4cccc(Cl)c4Cl)CC3)cc2N1 [aripiprazole]
Ckr mice; 15 mg/kg
  locomotor activity, post-hoc Dunnett's test vs vehicle control: did not significantly suppress
  motor activity: increase in motor activity
Ckr mice; 30 mg/kg
  locomotor activity, post-hoc Dunnett's test vs vehicle control: significantly suppressed
  motor activity: suppression of motor activity
  overall suppression of motor function (observational): severe sedation
Ckr mice; across doses, F6,54_4.626, P_0.001
  locomotor activity of ckr mice: dose-dependently reduced
Ckr mice; curve fitted to subset of data, doses 1.67 to 10 mg/kg, fit failed to correlate with observed values
  ED50 for initial suppression of locomotor activity: 2.695 mg/kg
Ckr mice
  spontaneous hyperactivity of ckr mice: dose-dependently suppressed
Ckr mice; doses of 3-10 mg/kg
  locomotor activity, post-hoc Dunnett's test vs vehicle control: significantly reduced
Ckr mice; lower doses 1.67-10 mg/kg
  motor activity: dose-dependent reduction
Ckr mice; suppression at low doses, little effect at intermediate doses, suppression at high doses
  shape of dose-response on hyperactivity: tri-phasic dose-response

## O=C1Cc2cc(CCN3CCN(c4nsc5ccccc45)CC3)c(Cl)cc2N1 [ziprasidone]
Ckr mice
  spontaneous hyperactivity of ckr mice: dose-dependently suppressed

## OCCOCCN1CCN(C2=Nc3ccccc3Sc3ccccc32)CC1 [quetiapine]
Ckr mice
  spontaneous hyperactivity of ckr mice: dose-dependently suppressed

## O=C(CCCN1CCC(O)(c2ccc(Cl)cc2)CC1)c1ccc(F)cc1 [haloperidol]
Ckr mice
  spontaneous hyperactivity of ckr mice: dose-dependently suppressed
Control mice
  locomotor activity of control mice: did not produce a significant suppression
